Results: US20220125746A1, “METHOD OF PREVENTING OR TREATING TREATMENT-INDUCED GASTROINTESTINAL INJURY” (priority 2019, published 2022)
Structures can show the parent of a compound that is named as a salt.

Assay: PUMAi distribution in intestinal mucosa and plasma (LC-MS/MS)
Format: in vivo, mouse
Settings: for PUMAi concentration in intestinal mucosa compared to -1.5 hours: 10 mg/kg i.p.
Protocol: Acetonitrile and water (all HPLC grade) were purchased from Fisher Scientific. Formic acid and trifluoroacetic acid was purchased from Sigma-Aldrich. Stock solutions of PUMAi and [D5]-PUMAi internal standard were prepared at 1 mg/mL in DMSO, diluted 10 times in acetonitrile, and then stored at −80° C. On the day of the assay, the solution was serially diluted (in 10-fold steps) in acetonitrile to obtain the lower calibration working solutions of 0.01 and 0.001 mg/mL. These calibration working solutions were diluted in mouse plasma (Lampire Biological Laboratories, Inc.) to produce the following analyte concentrations: 10, 30, 50, 100, 300, 500, 1000, 3000 ng/mL. For each calibration series, zero (containing 10 ng/mL of internal standard) and blank samples were also prepared from 50 μL of Lampire plasma. Quality control (QC) stock solutions were diluted in Lampire mouse plasma to produce the following QC samples: QC Low (QCL) 20 ng/mL; QC Mid (QCM) 200 ng/mL, and QC High (QCH) 2500 ng/mL.
To extract PUMAi, we added 10 μL of internal standard solution (1000 ng/mL [D5]-PUMAi in acetonitrile) to 50 μL of plasma sample in a micro centrifuge tube. […]
The mass spectrometer was operated in ESI positive mode using MRM detection. […] The mass transitions monitored were m/z 331>143 for PUMAi and 345>157 for the internal standard.
To assess recovery from plasma, we compared areas from control plasma spiked with 1000 ng/mL of PUMAi, prepared as described above, with the areas obtained with a neat solution of PUMAi in water. Intestinal mucosa was analyzed after dilution in control plasma to within the calibration range. […]
PUMAi {1-[4-(2-hydroxyethyl)-1-piperazinyl]-3-(2-naphthyloxy)-2-propanol dihydrochloride} was synthesized by ChemBridge, with a purity of 95% by HPLC-MS, and an internal isotopic standard PUMAih7 (D5, five internal hydrogens replaced by deuterium) was synthesized by Alsachim, with purity approaching 100% by HPLC-MS. […] Detailed methods on LC-MS/MS (liquid chromatography-tandem MS) quantitation of PUMAi are found in Supplementary Materials and Methods.

In the case of `OCCN1CCN(CC(O)COc2ccc3ccccc3c2)CC1` (stereo not drawn) [PUMAi, 1-[4-(2-hydroxyethyl)-1-piperazinyl]-3-(2-naphthyloxy)-2-propanol dihydrochloride], the “PUMAi concentration in intestinal mucosa compared to -1.5 hours” value (+1 hour of CPT-11 administration) is reported as 67%, the “PUMAi concentration in intestinal mucosa compared to -1.5 hours” value (+6 hours of CPT-11 administration) is reported as 30% and the “PUMAi concentration in plasma over time” value (-1.5, +1, +6 hours, compared with intestinal mucosa) is reported as “dropped more quickly in the plasma”.
